Laboratory results: paper PMC5218480 (PLoS ONE, 2017)

Tested on: MV-4-11 cells
Experiment: Gene expression microarray analysis (Affymetrix PrimeView) and GSEA
Type: cell-based, human
Design: RFU PODN (11730768_x_at) / Fold change /veh PODN (11730768_x_at) / RFU LINC00158 (11744669_a_at) / Fold change /veh LINC00158 (11744669_a_at) / RFU DUSP10 (11751237_a_at) / Fold change /veh DUSP10 (11751237_a_at) / RFU ID3 (11757404_x_at) / Fold change /veh ID3 (11757404_x_at) / RFU PLEKHG5 (11737974_s_at) / Fold change /veh PLEKHG5 (11737974_s_at) / RFU LRRC4B (11730491_at) / Fold change /veh LRRC4B (11730491_at) / RFU GIMAP4 (11747438_a_at) / Fold change /veh GIMAP4 (11747438_a_at) / RFU KRT8 (11758183_x_at) / Fold change /veh KRT8 (11758183_x_at) / RFU CNN1 (11734310_a_at) / Fold change /veh CNN1 (11734310_a_at) / RFU VPS37D (11726825_at) / Fold change /veh VPS37D (11726825_at) / RFU C10orf10 (11716522_x_at) / Fold change /veh C10orf10 (11716522_x_at) / RFU KIR2DL2 /// KIR2DL4 /// KIR2DL5A /// KIR2DL5B /// KIR2DS1 /// KIR2DS2 /// KIR2DS3 /// KIR2DS4 /// KIR3DL3 /// KIR3DL3 /// KIR3DS1 (11738374_at) / Fold change /veh KIR2DL2 /// KIR2DL4 /// KIR2DL5A /// KIR2DL5B /// KIR2DS1 /// KIR2DS2 /// KIR2DS3 /// KIR2DS4 /// KIR3DL3 /// KIR3DL3 /// KIR3DS1 (11738374_at) / RFU C1QL1 (11718748_at) / Fold change /veh C1QL1 (11718748_at) / RFU TMPRSS4 (11747572_a_at) / Fold change /veh TMPRSS4 (11747572_a_at) / RFU HAMP (11756126_x_at) / Fold change /veh HAMP (11756126_x_at) / RFU RNFT2 (11725882_a_at) / Fold change /veh RNFT2 (11725882_a_at) / RFU NR4A2 (11747474_a_at) / Fold change /veh NR4A2 (11747474_a_at) / RFU ABCC12 (11746883_a_at) / Fold change /veh ABCC12 (11746883_a_at) / RFU TMEM136 (11760407_x_at) / Fold change /veh TMEM136 (11760407_x_at) / RFU CLDN22 /// WWC2 (11732394_at) / Fold change /veh CLDN22 /// WWC2 (11732394_at) / RFU HLA-DPB1 (11760878_x_at) / Fold change /veh HLA-DPB1 (11760878_x_at) / RFU SPINT1 (11716480_a_at) / Fold change /veh SPINT1 (11716480_a_at) / RFU GAP43 (11754022_s_at) / Fold change /veh GAP43 (11754022_s_at) / RFU A4GNT (11735810_at) / Fold change /veh A4GNT (11735810_at) / RFU PRB3 (11715151_x_at) / Fold change /veh PRB3 (11715151_x_at) / RFU TUBB4B (11761932_at) / Fold change /veh TUBB4B (11761932_at) / RFU CAPN14 (11732068_a_at) / Fold change /veh CAPN14 (11732068_a_at) / RFU TMCC2 (11721928_a_at) / Fold change /veh TMCC2 (11721928_a_at) / RFU IRGQ (11745062_a_at) / Fold change /veh IRGQ (11745062_a_at) / RFU FAM174B (11720279_a_at) / Fold change /veh FAM174B (11720279_a_at) / RFU TMPRSS4 (11748680_a_at) / Fold change /veh TMPRSS4 (11748680_a_at) / RFU FAM212B (11763350_a_at) / Fold change /veh FAM212B (11763350_a_at) / RFU PLEKHG5 (11743358_a_at) / Fold change /veh PLEKHG5 (11743358_a_at) / RFU ZSCAN30 (11745921_a_at) / Fold change /veh ZSCAN30 (11745921_a_at) / RFU CMKLR1 (11741424_a_at) / Fold change /veh CMKLR1 (11741424_a_at) / RFU LOC101060620 /// MAPK8IP1 (11723275_at) / Fold change /veh LOC101060620 /// MAPK8IP1 (11723275_at) / RFU SPTSSB (11747773_x_at) / Fold change /veh SPTSSB (11747773_x_at) / RFU PRSS12 (11739890_at) / Fold change /veh PRSS12 (11739890_at) / RFU BIN1 (11741810_x_at) / Fold change /veh BIN1 (11741810_x_at) / RFU WNT11 (11732464_a_at) / Fold change /veh WNT11 (11732464_a_at) / RFU C10orf10 (11716521_a_at) / Fold change /veh C10orf10 (11716521_a_at) / RFU C5orf56 (11738089_at) / Fold change /veh C5orf56 (11738089_at) / RFU CYB561 (11721691_x_at) / Fold change /veh CYB561 (11721691_x_at) / RFU ANKRD19P (11752326_a_at) / Fold change /veh ANKRD19P (11752326_a_at) / RFU OR2T12 /// OR2T33 /// OR2T8 (11738714_s_at) / Fold change /veh OR2T12 /// OR2T33 /// OR2T8 (11738714_s_at) / RFU VCAN (11748164_a_at) / Fold change /veh VCAN (11748164_a_at) / RFU JSRP1 (11732532_at) / Fold change /veh JSRP1 (11732532_at) / RFU KRTAP10-11 (11738290_x_at) / Fold change /veh KRTAP10-11 (11738290_x_at) / RFU MYO3A (11730013_a_at) / Fold change /veh MYO3A (11730013_a_at) / RFU EBF3 (11725865_a_at) / Fold change /veh EBF3 (11725865_a_at) / RFU CAMK2N1 (11719241_x_at) / Fold change /veh CAMK2N1 (11719241_x_at) / RFU C5orf56 (11738088_a_at) / Fold change /veh C5orf56 (11738088_a_at) / RFU OLFML3 (11715873_a_at) / Fold change /veh OLFML3 (11715873_a_at) / RFU LOC100653217 /// NTM (11731650_a_at) / Fold change /veh LOC100653217 /// NTM (11731650_a_at) / RFU MAPK11 (11762145_a_at) / Fold change /veh MAPK11 (11762145_a_at) / RFU FIZ1 (11724087_x_at) / Fold change /veh FIZ1 (11724087_x_at) / RFU OASL (11726364_x_at) / Fold change /veh OASL (11726364_x_at) / RFU SOX15 (11748057_x_at) / Fold change /veh SOX15 (11748057_x_at) / RFU CD79A (11719716_a_at) / Fold change /veh CD79A (11719716_a_at) / RFU HIST1H1D (11736915_at) / Fold change /veh HIST1H1D (11736915_at) / RFU CASKIN2 (11723855_a_at) / Fold change /veh CASKIN2 (11723855_a_at) / RFU LOC730098 (11760151_x_at) / Fold change /veh LOC730098 (11760151_x_at) / RFU OR4N2 (11742367_at) / Fold change /veh OR4N2 (11742367_at) / RFU PRRT2 (11749266_a_at) / Fold change /veh PRRT2 (11749266_a_at) / RFU SNX32 (11753110_a_at) / Fold change /veh SNX32 (11753110_a_at) / RFU CDHR5 (11726645_a_at) / Fold change /veh CDHR5 (11726645_a_at) / RFU RCAN1 (11760418_a_at) / Fold change /veh RCAN1 (11760418_a_at) / RFU FAM167A (11723789_a_at) / Fold change /veh FAM167A (11723789_a_at) / RFU FAM26E (11764081_at) / Fold change /veh FAM26E (11764081_at) / RFU ISYNA1 (11749810_s_at) / Fold change /veh ISYNA1 (11749810_s_at) / RFU ACY1 (11761880_at) / Fold change /veh ACY1 (11761880_at) / RFU 11764098_at / Fold change /veh 11764098_at / RFU SAMD14 (11745864_x_at) / Fold change /veh SAMD14 (11745864_x_at) / RFU NPB (11741838_a_at) / Fold change /veh NPB (11741838_a_at) / RFU TMPRSS6 (11731388_a_at) / Fold change /veh TMPRSS6 (11731388_a_at) / RFU KRTAP10-2 (11738614_at) / Fold change /veh KRTAP10-2 (11738614_at) / RFU ARHGAP8 /// PRR5-ARHGAP8 (11727945_x_at) / Fold change /veh ARHGAP8 /// PRR5-ARHGAP8 (11727945_x_at) / RFU KRTAP5-7 /// NADSYN1 (11734609_at) / Fold change /veh KRTAP5-7 /// NADSYN1 (11734609_at) / RFU RASL12 (11751679_a_at) / Fold change /veh RASL12 (11751679_a_at) / RFU CDKN2B (11736163_a_at) / Fold change /veh CDKN2B (11736163_a_at) / RFU PRF1 (11729649_at) / Fold change /veh PRF1 (11729649_at) / RFU, ZNF638 /// ZNF638-IT1 / Fold change vs veh, ZNF638 /// ZNF638-IT1 / RFU, PANK3 / Fold change vs veh, PANK3 / RFU, SH3YL1 / Fold change vs veh, SH3YL1 / RFU, ZEB2 / Fold change vs veh, ZEB2 / RFU, NRIP1 / Fold change vs veh, NRIP1 / RFU, PTTG1IP / Fold change vs veh, PTTG1IP / RFU, CAPN2 / Fold change vs veh, CAPN2 / RFU, MED14 / Fold change vs veh, MED14 / RFU, SNORA58 / Fold change vs veh, SNORA58 / RFU, C1orf63 / Fold change vs veh, C1orf63 / RFU, LRRFIP1 / Fold change vs veh, LRRFIP1 / RFU, NDUFAF7 / Fold change vs veh, NDUFAF7 / RFU, SLC12A2 / Fold change vs veh, SLC12A2 / RFU, IBTK / Fold change vs veh, IBTK / RFU, ESF1 / Fold change vs veh, ESF1 / Fold change vs veh, TMEM50B / RFU, TAOK1 / Fold change vs veh, TAOK1 / RFU, ACBD3 / Fold change vs veh, ACBD3 / RFU, TMA16 / Fold change vs veh, TMA16 / RFU, RWDD3 / Fold change vs veh, RWDD3 / RFU, BCAT1 / Fold change vs veh, BCAT1 / RFU, EDEM3 / Fold change vs veh, EDEM3 / RFU, TMEM33 / Fold change vs veh, TMEM33 / RFU, WDR75 / Fold change vs veh, WDR75 / RFU, AHCTF1 / Fold change vs veh, AHCTF1 / RFU, TFRC / Fold change vs veh, TFRC / RFU, ZDHHC17 / Fold change vs veh, ZDHHC17 / RFU, NOM1 / Fold change vs veh, NOM1 / RFU, ARL8B / Fold change vs veh, ARL8B / RFU, ZBTB11 / Fold change vs veh, ZBTB11 / RFU, TAMM41 / Fold change vs veh, TAMM41 / RFU, KIAA1704 /// LOC100996395 / Fold change vs veh, KIAA1704 /// LOC100996395 / RFU, ING1 / Fold change vs veh, ING1 / RFU, TRMT61B / Fold change vs veh, TRMT61B / RFU, FUBP3 / Fold change vs veh, FUBP3 / RFU, TP53 / Fold change vs veh, TP53 / RFU, TNKS2 / Fold change vs veh, TNKS2 / RFU, ZFP14 / Fold change vs veh, ZFP14 / RFU, ACTR2 / Fold change vs veh, ACTR2 / RFU, PPP3R1 / Fold change vs veh, PPP3R1 / RFU, PIK3R1 / Fold change vs veh, PIK3R1 / RFU, HNRNPA1 / Fold change vs veh, HNRNPA1 / RFU, RNF170 / Fold change vs veh, RNF170 / RFU, ZNF28 / Fold change vs veh, ZNF28 / RFU, RNGTT / Fold change vs veh, RNGTT / RFU, OGT / Fold change vs veh, OGT / RFU, BRD1 / Fold change vs veh, BRD1 / RFU, MARS / Fold change vs veh, MARS / RFU, ZNF655 / Fold change vs veh, ZNF655 / RFU, FAHD1 / Fold change vs veh, FAHD1 / RFU, BDP1 / Fold change vs veh, BDP1 / RFU, LRRCC1 / Fold change vs veh, LRRCC1 / RFU, ARID1A / Fold change vs veh, ARID1A / RFU, ZNF146 / Fold change vs veh, ZNF146 / RFU, ZNF330 / Fold change vs veh, ZNF330 / RFU, GPN3 / Fold change vs veh, GPN3 / RFU, C9orf123 / Fold change vs veh, C9orf123 / RFU, N4BP2L2 / Fold change vs veh, N4BP2L2 / RFU, ARFIP1 / Fold change vs veh, ARFIP1 / RFU, FAM179B / Fold change vs veh, FAM179B / RFU, BCL10 / Fold change vs veh, BCL10 / RFU, UHRF1BP1L / Fold change vs veh, UHRF1BP1L / RFU, BET1 / Fold change vs veh, BET1 / RFU, CNOT2 / Fold change vs veh, CNOT2 / RFU, ZNF268 / Fold change vs veh, ZNF268 / Fold change vs veh, ZNF507 / RFU, DGCR2 / Fold change vs veh, DGCR2 / RFU, WDSUB1 / Fold change vs veh, WDSUB1 / Fold change vs veh, HSP90B1 /// MIR3652 / RFU, ADSS / Fold change vs veh, ADSS / RFU, GK / Fold change vs veh, GK / RFU, ZNF148 / Fold change vs veh, ZNF148 / RFU, TAF9 / Fold change vs veh, TAF9 / RFU, SLC1A5 / Fold change vs veh, SLC1A5 / RFU, SLMO2 / Fold change vs veh, SLMO2 / RFU, ABCC4 / Fold change vs veh, ABCC4 / RFU, LOC101060439 /// RAP1B / Fold change vs veh, LOC101060439 /// RAP1B / RFU, RFX7 / Fold change vs veh, RFX7 / RFU, GTPBP10 / Fold change vs veh, GTPBP10 / RFU, CNEP1R1 / Fold change vs veh, CNEP1R1 / RFU, BIVM-ERCC5 /// ERCC5 / Fold change vs veh, BIVM-ERCC5 /// ERCC5 / RFU, ILF3 / Fold change vs veh, ILF3 / RFU 11762660_at / Fold change /veh 11762660_at / RFU VCAN (11757783_s_at) / Fold change /veh VCAN (11757783_s_at) / RFU DDX43 (11728927_at) / Fold change /veh DDX43 (11728927_at) / RFU KRT8 (11758188_x_at) / Fold change /veh KRT8 (11758188_x_at) / RFU NKD1 (11759106_at) / Fold change /veh NKD1 (11759106_at) / RFU SRD5A1 (11742802_a_at) / Fold change /veh SRD5A1 (11742802_a_at) / RFU TPSAB1 /// TPSB2 (11721975_s_at) / Fold change /veh TPSAB1 /// TPSB2 (11721975_s_at) / RFU GSTM3 (11746129_a_at) / Fold change /veh GSTM3 (11746129_a_at) / RFU IL23R (11737362_x_at) / Fold change /veh IL23R (11737362_x_at) / RFU TMEM51 (11727254_a_at) / Fold change /veh TMEM51 (11727254_a_at) / RFU PIWIL2 (11732686_x_at) / Fold change /veh PIWIL2 (11732686_x_at) / RFU ORM1 (11744905_x_at) / Fold change /veh ORM1 (11744905_x_at) / RFU CCDC152 (11743942_at) / Fold change /veh CCDC152 (11743942_at) / RFU ECM1 (11717891_a_at) / Fold change /veh ECM1 (11717891_a_at) / RFU IL23R (11748794_a_at) / Fold change /veh IL23R (11748794_a_at) / RFU TNFAIP8L3 (11732012_x_at) / Fold change /veh TNFAIP8L3 (11732012_x_at) / RFU MBOAT4 (11741988_at) / Fold change /veh MBOAT4 (11741988_at) / RFU 11764193_at / Fold change /veh 11764193_at / RFU TMEM53 (11763286_at) / Fold change /veh TMEM53 (11763286_at) / RFU MAGEB2 (11727129_at) / Fold change /veh MAGEB2 (11727129_at) / RFU TMEM200A (11744735_a_at) / Fold change /veh TMEM200A (11744735_a_at) / RFU CCDC152 (11751479_a_at) / Fold change /veh CCDC152 (11751479_a_at) / RFU FAM211A (11726209_a_at) / Fold change /veh FAM211A (11726209_a_at) / RFU RGS16 (11746705_a_at) / Fold change /veh RGS16 (11746705_a_at) / RFU VCAN (11755009_s_at) / Fold change /veh VCAN (11755009_s_at) / RFU RHOB (11743442_s_at) / Fold change /veh RHOB (11743442_s_at) / RFU RGS16 (11720943_a_at) / Fold change /veh RGS16 (11720943_a_at) / RFU RGS16 (11720944_at) / Fold change /veh RGS16 (11720944_at) / RFU, VPS4B / Fold change vs veh, VPS4B / RFU, CREB1 / Fold change vs veh, CREB1 / RFU, DNAJC13 / Fold change vs veh, DNAJC13 / RFU, GNAQ / Fold change vs veh, GNAQ / RFU, CDK5R1 / Fold change vs veh, CDK5R1 / RFU, ZRANB3 / Fold change vs veh, ZRANB3 / RFU, CUL4A / Fold change vs veh, CUL4A / RFU, CCNY / Fold change vs veh, CCNY / RFU, UFL1 / Fold change vs veh, UFL1 / RFU, COG3 / Fold change vs veh, COG3 / RFU, DIAPH2 / Fold change vs veh, DIAPH2 / RFU, SKA2 / Fold change vs veh, SKA2 / RFU, AFF3 / Fold change vs veh, AFF3 / RFU, LMF1 / Fold change vs veh, LMF1 / RFU, IPO11 / Fold change vs veh, IPO11 / RFU, DFFB / Fold change vs veh, DFFB / RFU, FOXP1 / Fold change vs veh, FOXP1 / RFU, CARD8 / Fold change vs veh, CARD8 / RFU, STRN3 / Fold change vs veh, STRN3 / RFU, ADK / Fold change vs veh, ADK / RFU, RASSF2 / Fold change vs veh, RASSF2 / RFU, WIPF1 / Fold change vs veh, WIPF1 / RFU, LARP1B / Fold change vs veh, LARP1B / RFU, RASA1 / Fold change vs veh, RASA1 / RFU, RB1 / Fold change vs veh, RB1 / RFU, PPFIA1 / Fold change vs veh, PPFIA1 / RFU, MAT2A / Fold change vs veh, MAT2A / RFU, CCT5 / Fold change vs veh, CCT5 / RFU, WDR92 / Fold change vs veh, WDR92 / RFU, CUX1 / Fold change vs veh, CUX1 / RFU, TTC7A / Fold change vs veh, TTC7A / RFU, TMEM135 / Fold change vs veh, TMEM135 / RFU, DEPTOR / Fold change vs veh, DEPTOR / RFU, CPM / Fold change vs veh, CPM / RFU, DNAJB6 / Fold change vs veh, DNAJB6 / RFU, CACNA2D3 / Fold change vs veh, CACNA2D3 / RFU, DTX4 / Fold change vs veh, DTX4 / RFU, TFCP2 / Fold change vs veh, TFCP2 / RFU, GMCL1 /// GMCL1P1 / Fold change vs veh, GMCL1 /// GMCL1P1 / RFU, AEBP2 / Fold change vs veh, AEBP2 / RFU, SNHG1 /// SNORD22 /// SNORD25 /// SNORD26 /// SNORD27 /// SNORD28 /// SNORD29 /// SNORD31 / Fold change vs veh, SNHG1 /// SNORD22 /// SNORD25 /// SNORD26 /// SNORD27 /// SNORD28 /// SNORD29 /// SNORD31 / Fold change (Aza/veh), C12orf56 (ProbeSet 11735607_a_at) / Fold change (ACY-1035/veh), C12orf56 (ProbeSet 11735607_a_at) / Fold change (Aza/veh), FGFR1OP (ProbeSet 11751329_s_at) / Fold change (ACY-1035/veh), FGFR1OP (ProbeSet 11751329_s_at) / Fold change (Aza/veh), VPS36 (ProbeSet 11739960_a_at) / Fold change (ACY-1035/veh), VPS36 (ProbeSet 11739960_a_at) / RFU SYPL1 (11715823_x_at) / Fold change /veh SYPL1 (11715823_x_at) / RFU IGFBP7 (11715501_s_at) / Fold change /veh IGFBP7 (11715501_s_at) / RFU REEP3 (11722064_at) / Fold change /veh REEP3 (11722064_at) / RFU IGLL1 (11728026_x_at) / Fold change /veh IGLL1 (11728026_x_at): dose or concentration left out as unconfirmed
Conditions: MV-4-11 cells, 48 hours

Nc1ccc(-c2cccs2)cc1NC(=O)c1ccc2c(c1)cc(C1CC1)n2CCN1CCOCC1 [ACY-1035]
RFU RGS16 (11720943_a_at): 70.47 RFU
